The values below come from the supplement of paper PMC11424490.

SMILES strings stand for the structures.

Assay [1] concerns NCI-H2122. Put plainly: relative IC50 of cell viability (CellTiter-Glo); higher = less potent. As for the experimental part:
(§1)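 CellTiter-Glo proliferation assay in KRAS G12C mutant NCI-H2122 (72 h), SW837 (144 h) and NCI-H358 cells in 384-well plates. Monotherapy dose response was fitted with a four-parameter curve after normalisation to DMSO controls (% of control, PoC). IC50 is the relative IC50, averaged over replicates. Bottom is the fitted lower plateau in %PoC; Max.Conc. is the top dose tested.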
(ATP-based viability assays read luminescence as a measure of living cells.)

Assay [2] relates to SW837. Kind of assay: fitted bottom plateau of viability curve, % of DMSO control; higher = less maximal inhibition; extreme values may be limits of the assay. As for the experimental part:
as §1

Assay [3] has as its system NCI-H2122. The assay is described as above. As for the experimental part: as §1
Assay [4] deals with SW837. Kind of assay: combination cScore with sotorasib (Bliss gap around IC50) (%PoC); higher = stronger additive effect. In outline:
(§2)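 NCI-H2122, NCI-H358 and SW837 cells (500 or 800 per well, 384-well plates) were dosed in concentration matrices after 24 h and grown 72 h, or 144 h for SW837. CellTiter-Glo luminescence was normalised to vehicle wells as percent of control and fitted with four-parameter curves. The score averages the Bliss-independence gap (expected minus measured viability) over a field around both monotherapy IC50s, or at the top concentrations when no IC50 was reached.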

Assay [5] concerns NCI-H2122. The description is as above. In outline:
as §2

In the case of `O=[N+]([O-])c1ccc(NCCNc2ncc(-c3ncc[nH]3)c(-c3ccc(Cl)cc3Cl)n2)nc1` (top concentration tested 10000 nM), the “relative IC50 of cell viability” value in assay [1] was determined as 8950 nM. Also, the figures for the “fitted bottom plateau of viability curve” value in assay [2] and in assay [3] were 91.7% and 43.5%, respectively.
For the molecule `CCN(CC)CCNC(=O)c1c(C)[nH]c(/C=C2\C(=O)Nc3ccc(F)cc32)c1C` [Sunitinib] (top concentration tested 9999.9 nM), the “relative IC50 of cell viability” value in assay [1] turned out to be 4650 nM. Also, the “fitted bottom plateau of viability curve” value was found to be 59.9% in assay [2] and 31.4% in assay [3].
For `CS(=O)(=O)c1ccc(-c2cnc(N)c(C(=O)Nc3ccccc3)n2)cc1` [VE-821] (top concentration tested 10000 nM), in that order: 2140 nM, 82.4% and 34.2%.
In the case of `Nc1ncn([C@@H]2O[C@H](CO)[C@@H](O)[C@H]2O)c(=O)n1` [Azacitidine] (top concentration tested 9999.8 nM), the “relative IC50 of cell viability” value in assay [1] was 1940 nM. Further, the “fitted bottom plateau of viability curve” value in assay [2] was 93%; in assay [3], 14.4%.
Turning to `COc1ccccc1-c1cc(Nc2cccc(CS(N)(=O)=O)c2)ncn1` [LDC-067] (top concentration tested 10000 nM), the “relative IC50 of cell viability” value in assay [1] worked out at 6690 nM. Moreover, the “fitted bottom plateau of viability curve” value in assay [2] came out at 87.9%; in assay [3], 47.3%.
For the molecule `Cc1ncc(NC(=O)c2cccc(C(F)(F)F)c2)cc1-c1cnc(OC2CCOCC2)c(N2CCOCC2)c1` [RAF-709] (top concentration tested 10000 nM), in assay [1], the “relative IC50 of cell viability” value stood at 1100 nM. Besides, the “fitted bottom plateau of viability curve” value in assay [2] was 87.9%; in assay [3], 11.1%.
For `Cc1ccc(NC(=O)c2ccnc(C(F)(F)F)c2)cc1-c1cc(OCCO)nc(N2CCOCC2)c1` [LXH-254] (top concentration tested 1000 nM), in that order: 200 nM, 94.2% and 63.6%.
For the molecule `COc1ncc(-c2nc3c(n2C(C)C)[C@H](c2ccc(Cl)cc2)N(c2cc(Cl)cn(C)c2=O)C3=O)c(OC)n1` [HDM-201] (top concentration tested 9999.9 nM), the “relative IC50 of cell viability” value in assay [1] was 126 nM. Also, the entries for the “fitted bottom plateau of viability curve” value in assay [2] and in assay [3] were 84.1% and 25.1%, respectively.
As for `CC(C)NC[C@@H](C(=O)N1CCN(c2ncnc3c2[C@H](C)C[C@H]3O)CC1)c1ccc(Cl)cc1` [Ipatasertib] (top concentration tested 10000 nM), in assay [1], the “relative IC50 of cell viability” value came out at 642 nM. Further, the “fitted bottom plateau of viability curve” value in assay [2] worked out at 85.8%; in assay [3], 57.9%.
`COc1cc2nccc(Oc3ccc(NC(=O)C4(C(=O)Nc5ccc(F)cc5)CC4)cc3)c2cc1OC` [XL-184] (top concentration tested 9999.9 nM): the “relative IC50 of cell viability” value in assay [1] amounted to 8090 nM. Further, the “fitted bottom plateau of viability curve” value in assay [2] turned out to be 55.8%; in assay [3] it was 35.3%.
For `CCc1cccc(CC)c1NC(=O)c1nn(C)c2c1CCc1cnc(Nc3ccc(C(=O)NC4CCN(C)CC4)cc3OC(F)(F)F)nc1-2` [NMS-P715] (top concentration tested 10000 nM), in that order: 3960 nM, 58.9% and 48.7%.
Turning to `O=C(CCCCCCC(=O)Nc1ccccc1)NO` [Vorinostat] (top concentration tested 10000 nM), in assay [1], the “relative IC50 of cell viability” value worked out at 2440 nM. The “fitted bottom plateau of viability curve” value came out at 25% in assay [2] and 10.7% in assay [3].
For `C[C@@H](Oc1cc(-c2cnn(C3CCNCC3)c2)cnc1N)c1c(Cl)ccc(F)c1Cl` (top concentration tested 10000 nM), in that order: 1230 nM, 31.9% and 4.25%.
On to `O=c1[nH]cc(F)c(=O)[nH]1` [Fluorouracil (5-FU)] (top concentration tested 1000.2 nM), for which the “relative IC50 of cell viability” value in assay [1] turned out to be 945 nM. The “fitted bottom plateau of viability curve” value stood at 96.6% in assay [2] and 64.6% in assay [3].
For `O=c1cc(N2CCOCC2)oc2c(-c3cccc4c3sc3ccccc34)cccc12` [NU-7441] (top concentration tested 10000 nM), in that order: 3430 nM, 70.7% and 42.8%.
For `COc1cc2c(NC3CCN(C(C)C)CC3)nc(C3CCCCC3)nc2cc1OCCCN1CCCC1` [UNC0638] (top concentration tested 10000 nM), in that order: 8590 nM, 88.9% and 46.7%.
For `CO[C@H]1/C=C/C[C@H](C)[C@@H](C)S(=O)(=O)NC(=O)c2ccc3c(c2)N(C[C@@H]2CC[C@H]21)C[C@@]1(CCCc2cc(Cl)ccc21)CO3` [AMG176] (top concentration tested 10000 nM), the “relative IC50 of cell viability” value in assay [1] came out at 3120 nM. Also, the entries for the “fitted bottom plateau of viability curve” value in assay [2] and in assay [3] were 96.3% and 45.9%, respectively.
As to `COc1cc2nccc(Oc3ccc(NC(=O)C4(C(=O)Nc5ccc(F)cc5)CC4)cc3)c2cc1OC` [XL-184] + C=CC(=O)N1CCN(c2nc(=O)n(-c3c(C)ccnc3C(C)C)c3nc(-c4c(O)cccc4F)c(F)cc23)[C@@H](C)C1 [sotorasib], the entries for the “combination cScore with sotorasib” value in assay [4] and in assay [5] were 14 and 11.7, respectively.
In the case of `NC(=O)c1ccc(-c2nc(-c3ccccn3)c(-c3ccc4c(c3)OCO4)[nH]2)cc1` + C=CC(=O)N1CCN(c2nc(=O)n(-c3c(C)ccnc3C(C)C)c3nc(-c4c(O)cccc4F)c(F)cc23)[C@@H](C)C1 [sotorasib], the “combination cScore with sotorasib” value in assay [4] turned out to be 4.91; in assay [5], 3.33.
Take `O=c1[nH]cc(F)c(=O)[nH]1` [Fluorouracil (5-FU)] + C=CC(=O)N1CCN(c2nc(=O)n(-c3c(C)ccnc3C(C)C)c3nc(-c4c(O)cccc4F)c(F)cc23)[C@@H](C)C1 [sotorasib]: the entries for the “combination cScore with sotorasib” value in assay [4] and in assay [5] were 15.4 and 2.26, respectively.
With `COc1cccc2c1C(=O)c1c(O)c3c(c(O)c1C2=O)C[C@@](O)(C(=O)CO)C[C@@H]3O[C@H]1C[C@H](N)[C@H](O)[C@H](C)O1` [Doxorubicin] + C=CC(=O)N1CCN(c2nc(=O)n(-c3c(C)ccnc3C(C)C)c3nc(-c4c(O)cccc4F)c(F)cc23)[C@@H](C)C1 [sotorasib], the “combination cScore with sotorasib” value came to 11 in assay [4] and 11.1 in assay [5].
For `Cn1nnc2c(C(N)=O)ncn2c1=O` [Temozolomide] + C=CC(=O)N1CCN(c2nc(=O)n(-c3c(C)ccnc3C(C)C)c3nc(-c4c(O)cccc4F)c(F)cc23)[C@@H](C)C1 [sotorasib], in that order: -4.91 and 6.39.
`c1ccc(-c2nn3c(c2-c2ccnc4cc(OCCN5CCOCC5)ccc24)CCC3)nc1` + C=CC(=O)N1CCN(c2nc(=O)n(-c3c(C)ccnc3C(C)C)c3nc(-c4c(O)cccc4F)c(F)cc23)[C@@H](C)C1 [sotorasib]: the “combination cScore with sotorasib” value is 8.58 in assay [4] and 8.94 in assay [5].
For `C=C(c1ccc(C(=O)O)cc1)c1cc2c(cc1C)C(C)(C)CCC2(C)C` [Bexarotene] + C=CC(=O)N1CCN(c2nc(=O)n(-c3c(C)ccnc3C(C)C)c3nc(-c4c(O)cccc4F)c(F)cc23)[C@@H](C)C1 [sotorasib], in that order: -2.93 and 14.2.
Take `N#CN=C(NCCCCCCOc1ccc(Cl)cc1)Nc1ccncc1` [GMX1778] + C=CC(=O)N1CCN(c2nc(=O)n(-c3c(C)ccnc3C(C)C)c3nc(-c4c(O)cccc4F)c(F)cc23)[C@@H](C)C1 [sotorasib]: the figures for the “combination cScore with sotorasib” value in assay [4] and in assay [5] were 7.36 and -13.8, respectively.
For `CN(NC(=O)CC(=O)NN(C)C(=S)c1ccccc1)C(=S)c1ccccc1` [Elesclomol] + C=CC(=O)N1CCN(c2nc(=O)n(-c3c(C)ccnc3C(C)C)c3nc(-c4c(O)cccc4F)c(F)cc23)[C@@H](C)C1 [sotorasib], in that order: 13.4 and 13.6.
For `Nc1cccc2c1CN(C1CCC(=O)NC1=O)C2=O` (stereo unspecified) [Lenalidomide] + C=CC(=O)N1CCN(c2nc(=O)n(-c3c(C)ccnc3C(C)C)c3nc(-c4c(O)cccc4F)c(F)cc23)[C@@H](C)C1 [sotorasib], in that order: -2.25 and 6.13.
